Source: patent US12508266B2 (priority 2010, dated 2025)
Converted amounts (≈) assume the structure as drawn.

How the values were obtained:
[1] = tested on: Influenza A H1N1 CA/04/2009 (Pandemic H1N1); type: cell-based
[2] = tested on: Measles virus (MV), strain Chicago; assay: Virus Yield Reduction Assay; type: cell-based; details: Vero-76 cells, one log 10 drop in virus produced
Rhinovirus 2 HGP [3] = type: cell-based
Yellow Fever 17D [4] = type: cell-based, Yellow fever virus
in vitro [5] = details: human
Influenza B Florida [6] = assay: microbe, parasite or virus in culture; type: cell-based
[7] = tested on: Adenovirus type 165089/Chicago; type: cell-based, Adenovirus (AV-1) type 1
[8] = tested on: Venezuelan Equine Encephalitis TC83; type: cell-based, Venezuelan equine encephalitis virus
[9] = tested on: Measles virus (MV), strain Chicago; assay: Neutral Red Uptake Assay; type: cell-based; details: Vero 76 cells
MA-104 cells [10] = details: African green monkey
in vitro [11] = details: African green monkey
Tacaribe TRVL 11573 [12] = type: cell-based
[13] = tested on: Marburg, Junin Candid 1, Pichinde, Chikungunya 181/25 and Vaccinia NYCBH; assay: organism not typed; type: cell-based; details: read-out: EC50 values, range over several viruses
SARS-CoV Urbani [14] = type: cell-based, SARS corona virus
Parainfluenza 3 14702 [15] = type: cell-based, Parainfluenza virus type 3
Dengue 2 New Guinea C [16] = type: cell-based, Dengue virus 2
Tacaribe TRVL 11573 [17] = type: cell-based; remark: listed apart in the source
Parainfluenza 3 14702 [18] = type: cell-based, Parainfluenza virus type 3; remark: listed apart in the source
West Nile [19] = type: cell-based, West Nile virus
[20] = tested on: Measles virus (MV), strain Chicago; assay: Visual CPE Assay; type: cell-based; details: Vero 76 cells
Pichinde [21] = type: cell-based
[22] = tested on: Influenza A H3N2 Brisbane/10/2007; type: cell-based
Respiratory Syncytial A2 [23] = type: cell-based, Respiratory syncytial virus
[24] = tested on: Influenza A H1N1 CA/04/2009 (Pandemic H1N1); type: cell-based; remark: listed apart in the source
Rift Valley Fever MP-12 [25] = type: cell-based, Rift Valley fever virus
[26] = tested on: Influenza A H3N2 Brisbane/10/2007; type: cell-based; remark: listed apart in the source
Yellow Fever 17D [27] = type: cell-based, Yellow fever virus; remark: listed apart in the source
in vitro [28] = details: human; remark: listed apart in the source
Respiratory Syncytial A2 [29] = type: cell-based, Respiratory syncytial virus; remark: listed apart in the source
[30] = tested on: Yellow fever virus (Jimenez strain); parameters: species or system Syrian golden hamsters; details: hamster, in vivo
Rhinovirus 2 HGP [31] = type: cell-based; remark: listed apart in the source
Rift Valley Fever MP-12 [32] = type: cell-based, Rift Valley fever virus; remark: listed apart in the source
in vitro [33] = details: African green monkey, Visual CPE Assay
[34] = tested on: Venezuelan Equine Encephalitis TC83; type: cell-based, Venezuelan equine encephalitis virus; remark: listed apart in the source
Pichinde [35] = type: cell-based; remark: listed apart in the source
Junin Candid 1 [36] = type: cell-based, Junin virus
Punta Toro A2 [37] = type: cell-based, Punta Toro virus
in vitro [38] = details: human; remark: listed apart in the source
Junin Candid 1 [39] = type: cell-based, Junin virus; remark: listed apart in the source
Dengue 2 New Guinea C [40] = type: cell-based, Dengue virus 2; remark: listed apart in the source
[41] = tested on: H3N2 virus (A/Victoria/3/75); parameters: species or system Balb/C mice; details: mouse, in vivo, po
in vitro [42] = details: human; remark: listed apart in the source
[43] = tested on: Adenovirus type 165089/Chicago; type: cell-based, Adenovirus (AV-1) type 1; remark: listed apart in the source
[44] = tested on: Influenza A H5N1 VN/1203/2004 Hybrid (on H1N1 backbone); type: cell-based
West Nile [45] = type: cell-based, West Nile virus; remark: listed apart in the source
Punta Toro A2 [46] = type: cell-based, Punta Toro virus; remark: listed apart in the source
Influenza B Florida [47] = type: cell-based
[48] = tested on: Influenza A H5N1 VN/1203/2004 Hybrid (on H1N1 backbone); type: cell-based; remark: listed apart in the source
MA-104 cells [49] = details: African green monkey; remark: listed apart in the source
SARS-CoV Urbani [50] = type: cell-based, SARS corona virus; remark: listed apart in the source

Nc1ncnc2c([C@@H]3N[C@H](CO)[C@@H](O)[C@H]3O)c[nH]c12 [Compound 1, (2S,3S,4R,5R)-2-(4-Amino-5H-pyrrolo[3,2-d]pyrimidin-7-yl)-5-(hydroxymethyl) pyrrolidine-3,4-diol]
SI Visual CPE Assay [1]: 120 | EC90 virus yield reduction [2]: 0.37 µg/mL (≈ 1.39 µM) | SI Neutral Red Uptake Assay (Rhinovirus 2 HGP [3]): >1.8 | SI Visual CPE Assay (Yellow Fever 17D [4]): 43 | CC50 (in vitro [5]): > 100 µg/mL | SI Neutral Red Uptake Assay (Influenza B Florida [6]): 38 | EC50 (Influenza B Florida [6]; Influenza B virus): 1.8 µg/mL (≈ 6.79 µM) | SI Neutral Red Uptake Assay [7]: >2.3 | SI Neutral Red Uptake Assay [8]: 1.2 | SI Neutral Red Uptake Assay [9]: >71 | IC50 Visual CPE Assay (MA-104 cells [10]): >100 µg/mL | CC50 (in vitro [11]): 52 µg/mL (≈ 196 µM) | SI Neutral Red Uptake Assay (Tacaribe TRVL 11573 [12]): 2 | EC50 [13]: ≥ 10 µg/mL | SI Neutral Red Uptake Assay (SARS-CoV Urbani [14]): >6.3 | SI Visual CPE Assay (Parainfluenza 3 14702 [15]): 7.1 | SI Visual CPE Assay (Dengue 2 New Guinea C [16]): 25 | SI Visual CPE Assay (Tacaribe TRVL 11573 [17]): 4.2 | SI Neutral Red Uptake Assay (Parainfluenza 3 14702 [18]): 52 | SI Visual CPE Assay (West Nile [19]): 0 | SI Visual CPE Assay [20]: >180 | SI Neutral Red Uptake Assay (Pichinde [21]): 6.7 | SI Neutral Red Uptake Assay [22]: 79 | SI Visual CPE Assay (Respiratory Syncytial A2 [23]): 0 | SI Neutral Red Uptake Assay [24]: 120 | SI Visual CPE Assay (Rift Valley Fever MP-12 [25]): 9.1 | SI Visual CPE Assay [26]: 140 | SI Neutral Red Uptake Assay (Yellow Fever 17D [27]): 38 | CC50 (in vitro [28]): > 100 µg/mL | SI Neutral Red Uptake Assay (Respiratory Syncytial A2 [29]): 0 | weight change [30]: weight gain over placebo and ribavirin administered pre-infection | SI Visual CPE Assay (Rhinovirus 2 HGP [31]): >1.8 | SI Neutral Red Uptake Assay (Rift Valley Fever MP-12 [32]): 6.6 | CC50 (in vitro [33]): 100 µg/mL (≈ 377 µM) | SI Visual CPE Assay [34]: 2.2 | SI Visual CPE Assay (Pichinde [35]): >8.2 | SI Visual CPE Assay (Junin Candid 1 [36]): >17 | SI Neutral Red Uptake Assay (Punta Toro A2 [37]): 0 | CC50 (in vitro [38]): > 100 µg/mL | SI Neutral Red Uptake Assay (Junin Candid 1 [39]): 14 | SI Neutral Red Uptake Assay (Dengue 2 New Guinea C [40]): 26 | Mean weight change (grams ± SEM) Day 9 [41]: 0.01 ± 0.27 grams | CC50 (in vitro [42]): > 100 µg/mL | SI Visual CPE Assay [43]: >2.6 | SI Visual CPE Assay [44]: >1600 | SI Neutral Red Uptake Assay (West Nile [45]): 2.8 | SI Visual CPE Assay (Punta Toro A2 [46]): >1.6 | SI Visual CPE Assay (Influenza B Florida [47]): 290 | SI Neutral Red Uptake Assay [48]: 130 | IC50 Neutral Red Uptake Assay (MA-104 cells [49]): >100 µg/mL | SI Visual CPE Assay (SARS-CoV Urbani [50]): >7.1
